Assay results: PubChem BioAssay AID330 (DTP/NCI, 2004)
“And” between values parts separate entries of the source, which are not always exact repeats. Identical values can stand only once. Toxic doses and inconclusive results are not listed.

Test system: P388 leukemia ip, CD2F1 mice, survival T/C
Assay: NCI In Vivo Anticancer Drug Screen. Data for tumor model P388 Leukemia (intraperitoneal) in CD2F1 (CDF1) mice
Conditions: endpoint: median survival time, higher = longer survival
How it was run: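 Mice carrying the transplanted tumor received test compound or vehicle. Survival was recorded in each group, and the value is the treated-group measurement divided by that of the vehicle-treated control group.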

[1] = dose: 60.0 mg/kg/injection, schedule: Q01DX005 (ip), vehicle: saline with Tween-80
[2] = dose: 120.0 mg/kg/injection, schedule: Q01DX005 (ip), vehicle: saline with Tween-80
[3] = dose: 240.0 mg/kg/injection, schedule: Q01DX005 (ip), vehicle: saline with Tween-80
[4] = dose: 12.5 mg/kg/injection, schedule: Q01DX009 (ip), vehicle: saline with Tween-80
[5] = dose: 25.0 mg/kg/injection, schedule: Q01DX009 (ip), vehicle: saline with Tween-80
[6] = dose: 50.0 mg/kg/injection, schedule: Q01DX009 (ip), vehicle: saline with Tween-80
[7] = dose: 50.0 mg/kg/injection, schedule: Q01DX005 (ip), vehicle: Klucel (hydroxypropylcellulose) (HPC)
[8] = dose: 100.0 mg/kg/injection, schedule: Q01DX005 (ip), vehicle: Klucel (hydroxypropylcellulose) (HPC)
[9] = dose: 100.0 mg/kg/injection, schedule: Q01DX001 (ip), vehicle: saline with Tween-80
[10] = dose: 50.0 mg/kg/injection, schedule: Q01DX005 (ip), vehicle: saline with Tween-80
[11] = dose: 100.0 mg/kg/injection, schedule: Q01DX005 (ip), vehicle: saline with Tween-80
[12] = dose: 200.0 mg/kg/injection, schedule: Q01DX005 (ip), vehicle: saline with Tween-80
[13] = dose: 25.0 mg/kg/injection, schedule: Q01DX005 (ip), vehicle: Klucel (hydroxypropylcellulose) (HPC)
[14] = dose: 50.0 mg/kg/injection, schedule: Q01DX009 (ip), vehicle: Klucel (hydroxypropylcellulose) (HPC)
[15] = dose: 100.0 mg/kg/injection, schedule: Q01DX009 (ip), vehicle: Klucel (hydroxypropylcellulose) (HPC)
[16] = dose: 200.0 mg/kg/injection, schedule: Q01DX009 (ip), vehicle: Klucel (hydroxypropylcellulose) (HPC)

For `O=C(NC(Cc1ccc(O)cc1)C(=O)O)C(=O)c1c[nH]c2ccc([N+](=O)[O-])cc12` (stereo not drawn), the T/C [1] was 97 % of control, the T/C [2] was 97 % of control and the T/C [3] was 89 % of control.
In the case of `Cc1c(C)c(C)c2c(c1C)CCC2O` (stereo not drawn), the T/C [4] is reported as 102 % of control and 100 % of control, the T/C [5] is reported as 105 % of control and 102 % of control and the T/C [6] is reported as 105 % of control and 100 % of control.
In the case of `O=C1C2=Cc3ccccc3CN2Cc2ccccc21`, the T/C (dose: 18.75 mg/kg/injection, schedule: Q01DX009 (ip), vehicle: saline with Tween-80) is reported as 111 % of control and the T/C (dose: 37.5 mg/kg/injection, schedule: Q01DX009 (ip), vehicle: saline with Tween-80) is reported as 90 % of control.
With `CCCCCCCCCCCCCCCCCOC(=O)CCCCCCCCCCCCC` the T/C (dose: 100.0 mg/kg/injection, schedule: Q01DX001 (ip), vehicle: other) was 100 % of control, the T/C (dose: 200.0 mg/kg/injection, schedule: Q01DX001 (ip), vehicle: other) was 95 % of control and the T/C (dose: 400.0 mg/kg/injection, schedule: Q01DX001 (ip), vehicle: other) was 90 % of control.
With `CCc1ccccc1NC(=O)C(=O)CC(=O)C1=C(C)Nc2ccccc2S1` the T/C [1] was 90 % of control, the T/C [2] was 96 % of control and the T/C [3] was 99 % of control.
With `NC(=S)N/N=C\Cn1cc([N+](=O)[O-])c(=O)[nH]c1=O` the T/C [7] was 101 % of control and the T/C [8] was 87 % of control.
`OCC1c2ccc(Cl)cc2Nc2ccc(Cl)cc21` (stereo not drawn) was tested, and the T/C [9] was 104 % of control, the T/C (dose: 200.0 mg/kg/injection, schedule: Q01DX001 (ip), vehicle: saline with Tween-80) was 95 % of control and the T/C (dose: 400.0 mg/kg/injection, schedule: Q01DX001 (ip), vehicle: saline with Tween-80) was 100 % of control.
For `CCC(=O)c1cc(Cl)ccc1O`, the T/C (dose: 37.5 mg/kg/injection, schedule: Q01DX001 (ip), vehicle: other) was 104 % of control, the T/C (dose: 75.0 mg/kg/injection, schedule: Q01DX001 (ip), vehicle: other) was 100 % of control and the T/C (dose: 150.0 mg/kg/injection, schedule: Q01DX001 (ip), vehicle: other) was 100 % of control.
For `CCCCCCCCn1nnnc1C(F)(F)F`, the T/C [10] was 100 % of control, the T/C [11] was 102 % of control and the T/C [12] was 102 % of control.
With `c1ccc(CCN2CCC3(CC2)COCc2ccccc23)cc1` the T/C [9] was 96 % of control.
With `CCOC(=O)NC(=O)NC(=O)OCC` the T/C (dose: 100.0 mg/kg/injection, schedule: Q04DX003 (ip), vehicle: saline sonified) was 100 % of control, the T/C (dose: 200.0 mg/kg/injection, schedule: Q04DX003 (ip), vehicle: saline sonified) was 100 % of control and the T/C (dose: 400.0 mg/kg/injection, schedule: Q04DX003 (ip), vehicle: saline sonified) was 100 % of control.
With `COc1cc2c(c(O)c1O)-c1ccc(OC)c(=O)cc1C(NC(C)=O)CC2` (stereo not drawn) the T/C (dose: 1.25 mg/kg/injection, schedule: Q01DX009 (ip), vehicle: water) was 97 % of control, the T/C (dose: 2.5 mg/kg/injection, schedule: Q01DX009 (ip), vehicle: water) was 97 % of control and the T/C (dose: 5.0 mg/kg/injection, schedule: Q01DX009 (ip), vehicle: water) was 100 % of control. For the same compound, the T/C (dose: 10.0 mg/kg/injection, schedule: Q01DX009 (ip), vehicle: water) was 100 % of control, the T/C (dose: 20.0 mg/kg/injection, schedule: Q01DX009 (ip), vehicle: water) was 97 % of control and the T/C (dose: 40.0 mg/kg/injection, schedule: Q01DX009 (ip), vehicle: distilled water + Tween-80) was 108 % of control. The T/C (dose: 80.0 mg/kg/injection, schedule: Q01DX009 (ip), vehicle: distilled water + Tween-80) was 122 % of control.
`CCc1nc(N)nc(N)c1-c1ccc(Cl)c(N=[N+]=[N-])c1` was tested, and the T/C (dose: 3.13 mg/kg/injection, schedule: Q01DX009 (ip), vehicle: distilled water + Tween-80) was 99 % of control, the T/C (dose: 6.25 mg/kg/injection, schedule: Q01DX009 (ip), vehicle: distilled water + Tween-80) was 102 % of control and the T/C (dose: 12.5 mg/kg/injection, schedule: Q01DX009 (ip), vehicle: distilled water + Tween-80) was 107 % of control. The T/C (dose: 15.0 mg/kg/injection, schedule: Q01DX005 (ip), vehicle: Klucel (hydroxypropylcellulose) (HPC)) was 100 % of control, the T/C (dose: 25.0 mg/kg/injection, schedule: Q01DX009 (ip), vehicle: distilled water + Tween-80) was 110 % of control and 89 % of control and the T/C (dose: 30.0 mg/kg/injection, schedule: Q01DX005 (ip), vehicle: Klucel (hydroxypropylcellulose) (HPC)) was 108 % of control. The T/C (dose: 50.0 mg/kg/injection, schedule: Q01DX009 (ip), vehicle: distilled water + Tween-80) was 109 % of control, the T/C (dose: 60.0 mg/kg/injection, schedule: Q01DX005 (ip), vehicle: Klucel (hydroxypropylcellulose) (HPC)) was 106 % of control and 116 % of control and the T/C (dose: 200.0 mg/kg/injection, schedule: Q01DX009 (ip), vehicle: distilled water + Tween-80) was 151 % of control.
For `O=S(=O)(Nc1nccs1)c1ccc(N=Cc2c3ccccc3nc3cc(Cl)ccc23)cc1`, the T/C [10] was 94 % of control, the T/C [11] was 93 % of control and the T/C [12] was 96 % of control.
With `CCCCOCC(C)O` (stereo not drawn) the T/C (dose: 100.0 mg/kg/injection, schedule: Q04DX003 (ip), vehicle: saline) was 109 % of control, the T/C (dose: 200.0 mg/kg/injection, schedule: Q04DX003 (ip), vehicle: saline) was 100 % of control and the T/C (dose: 400.0 mg/kg/injection, schedule: Q04DX003 (ip), vehicle: saline) was 90 % of control.
For `C1CC1C(=NN=C(C1CC1)C1CC1)C1CC1`, the T/C (dose: 6.25 mg/kg/injection, schedule: Q01DX009 (ip), vehicle: saline with Tween-80) was 102 % of control, the T/C [4] was 101 % of control and the T/C [5] was 96 % of control.
For `O=C(COc1ccc(Cl)cc1)OCCN1CCCCCC1`, the T/C (dose: 60.0 mg/kg/injection, schedule: Q01DX005 (ip), vehicle: saline) was 109 % of control, the T/C (dose: 120.0 mg/kg/injection, schedule: Q01DX005 (ip), vehicle: saline) was 110 % of control and the T/C (dose: 240.0 mg/kg/injection, schedule: Q01DX005 (ip), vehicle: saline) was 100 % of control.
With `CCCC(C(CC)CN(C)C)N(C)C` (stereo not drawn) the T/C [6] was 101 % of control and the T/C (dose: 100.0 mg/kg/injection, schedule: Q01DX009 (ip), vehicle: saline with Tween-80) was 93 % of control.
`Nc1nc(=S)c2[nH]c(N=Nc3ccc(S(=O)(=O)O)cc3)nc2[nH]1` was tested, and the T/C (dose: 6.25 mg/kg/injection, schedule: Q04DX003 (ip), vehicle: saline) was 123 % of control.
For `CCN1C(=O)NS(=O)(=O)c2ccccc21`, the T/C [10] was 94 % of control, the T/C [11] was 107 % of control and the T/C [12] was 97 % of control.
With `Cc1cccc(NN=O)n1` the T/C (dose: 1.5 mg/kg/injection, schedule: Q01DX009 (ip), vehicle: water) was 98 % of control, the T/C (dose: 1.56 mg/kg/injection, schedule: Q01DX009 (ip), vehicle: water) was 99 % of control and the T/C (dose: 3.0 mg/kg/injection, schedule: Q01DX009 (ip), vehicle: water) was 107 % of control. The T/C (dose: 3.12 mg/kg/injection, schedule: Q01DX009 (ip), vehicle: water) was 115 % of control, the T/C (dose: 6.25 mg/kg/injection, schedule: Q01DX009 (ip), vehicle: water) was 120 % of control and the T/C (dose: 25.0 mg/kg/injection, schedule: Q01DX009 (ip), vehicle: water) was 163 % of control.
`O=C(c1ccccc1)c1ccccc1NCC(O)COc1ccc(Cl)cc1` (stereo not drawn) was tested, and the T/C [1] was 88 % of control and 96 % of control, the T/C [2] was 100 % of control and the T/C [3] was 99 % of control.
For `O=C(NC(=S)Nc1c(Cl)cccc1Cl)c1cccc(Cl)c1`, the T/C (dose: 12.5 mg/kg/injection, schedule: Q01DX005 (ip), vehicle: Klucel (hydroxypropylcellulose) (HPC)) was 106 % of control, the T/C [13] was 92 % of control and the T/C [7] was 94 % of control.
For `CCCCNC(=O)C(c1ccccc1)c1ccccc1`, the T/C [14] was 99 % of control, the T/C [15] was 106 % of control and the T/C [16] was 100 % of control.
With `FC(F)(F)c1ccccc1NC(=S)N1CCN(c2ccccc2)CC1` the T/C (dose: 50.0 mg/kg/injection, schedule: Q01DX009 (ip), vehicle: gum acacia) was 109 % of control, the T/C (dose: 100.0 mg/kg/injection, schedule: Q01DX009 (ip), vehicle: gum acacia) was 100 % of control and the T/C (dose: 200.0 mg/kg/injection, schedule: Q01DX009 (ip), vehicle: gum acacia) was 92 % of control.
In the case of `O=[N+]([O-])c1cc(Br)c2cccc3c2c1CC3`, the T/C [13] is reported as 91 % of control, the T/C [7] is reported as 93 % of control and the T/C [8] is reported as 90 % of control.
`CC1C(c2ccccc2)OCCN1C(=S)NC(=O)c1ccccc1` (stereo not drawn) was tested, and the T/C (dose: 25.0 mg/kg/injection, schedule: Q01DX009 (ip), vehicle: Klucel (hydroxypropylcellulose) (HPC)) was 102 % of control, the T/C [14] was 101 % of control and the T/C [15] was 100 % of control. The T/C [16] was 111 % of control.
